# Reference: patent US20250270191A1, “QUINOLONE BCL6 BIFUNCTIONAL DEGRADERS” (Treeline Biosciences, Inc., priority 2022, published 2025)
# Biological target: T1, Human BCL6 protein (N-terminal HiBiT tagged BCL6 in HT1080 cells) (Homo sapiens, UniProt P41182+Q96SW2)
# T1 construct: Human BCL6 protein coding open reading frame; expressed in transfected cells; host or cells: HT1080 (ATCC CCL-121), stably transduced with lentivirus pLV-UBC-N-HiBiT-BCL6-PGK-puro
# Assay: HiBiT based BCL6 degradation assay
# Format: cell-based
# Conditions: HT1080 cells expressing N-terminal HiBiT tagged BCL6; 5 hours incubation; BCL6 degradation normalized with DMSO control
# Procedure, shortened: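 HT1080 cells stably expressing N-terminal HiBiT-BCL6 were treated with compound dilution series for 5 h at 37° C. in RPMI 1640 with 10% FBS. HiBiT lytic luminescence read after 15 min; degradation normalized to DMSO, with curves fitted by four-parameter logistic model.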
row,SMILES,Ymin (5 hr)
1,"CNC(=O)COc1cc2cc(Nc3nc(NC[C@H]4CC[C@@H](CNc5cccc6c(C7CCC(=O)NC7=O)nn(C)c56)CC4)ncc3Cl)ccc2n(C)c1=O (stereo partly drawn) [Compound 297a, 2-((6-((5-chloro-2-((((1s,4s)-4-(((3-(2,6-dioxopiperidin-3-yl)-1-methyl-1H-indazol-7-yl)amino)methyl)cyclohexyl)methyl)amino)pyrimidin-4-yl)amino)-1-methyl-2-oxo-1,2-dihydroquinolin-3-yl)oxy)-N-methylacetamide]",++ (50% < Ymin ≤ 70%)
2,"CNC(=O)COc1cc2cc(Nc3nc(NC[C@H]4CC[C@@H](CNc5ccc6c(C7CCC(=O)NC7=O)nn(C)c6c5)CC4)ncc3Cl)ccc2n(C)c1=O (stereo partly drawn) [Compound 293a, 2-((6-((5-chloro-2-((((1s,4s)-4-(((3-(2,6-dioxopiperidin-3-yl)-1-methyl-1H-indazol-6-yl)amino)methyl)cyclohexyl)methyl)amino)pyrimidin-4-yl)amino)-1-methyl-2-oxo-1,2-dihydroquinolin-3-yl)oxy)-N-methylacetamide]",+++ (25% < Ymin ≤ 50%)
3,"CNC(=O)COc1cc2cc(Nc3nc(N4CCN(CC5CCC6(CC5)CN(c5ccc7c(C8CCC(=O)NC8=O)nn(C)c7c5)C6)CC4)ncc3Cl)ccc2n(C(C)C)c1=O (stereo not drawn) [Compound 298, 2-((6-((5-chloro-2-(4-((2-(3-(2,6-dioxopiperidin-3-yl)-1-methyl-1H-indazol-6-yl)-2-azaspiro[3.5]nonan-7-yl)methyl)piperazin-1-yl)pyrimidin-4-yl)amino)-1-isopropyl-2-oxo-1,2-dihydroquinolin-3-yl)oxy)-N-methylacetamide]",+++ (25% < Ymin ≤ 50%)
4,"CNC(=O)COc1cc2cc(Nc3nc(N4CCC5(CCC(Nc6ccc7c(C8CCC(=O)NC8=O)nn(C)c7c6)CC5)C4)ncc3Cl)ccc2n(C)c1=O (stereo not drawn) [Compound 343, 2-((6-((5-chloro-2-(8-((3-(2,6-dioxopiperidin-3-yl)-1-methyl-1H-indazol-6-yl)amino)-2-azaspiro[4.5]decan-2-yl)pyrimidin-4-yl)amino)-1-methyl-2-oxo-1,2-dihydroquinolin-3-yl)oxy)-N-methylacetamide]",+++ (25% < Ymin ≤ 50%)
5,"CNC(=O)COc1cc2cc(Nc3nc(NC[C@H]4CCCN(c5ccc6c(C7CCC(=O)NC7=O)nn(C)c6c5)C4)ncc3Cl)ccc2n(C)c1=O (stereo partly drawn) [Compound 295a, 2-((6-((5-chloro-2-((((3R)-1-(3-(2,6-dioxopiperidin-3-yl)-1-methyl-1H-indazol-6-yl)piperidin-3-yl)methyl)amino)pyrimidin-4-yl)amino)-1-methyl-2-oxo-1,2-dihydroquinolin-3-yl)oxy)-N-methylacetamide]",++ (50% < Ymin ≤ 70%)
6,"CNC(=O)COc1cc2cc(Nc3nc(NC[C@H]4CC[C@H](Nc5ccc6c(C7CCC(=O)NC7=O)nn(C)c6c5)CC4)ncc3Cl)ccc2n(C)c1=O (stereo partly drawn) [Compound 289b, 2-((6-((5-chloro-2-((((1r,4r)-4-((3-(2,6-dioxopiperidin-3-yl)-1-methyl-1H-indazol-6-yl)amino)cyclohexyl)methyl)amino)pyrimidin-4-yl)amino)-1-methyl-2-oxo-1,2-dihydroquinolin-3-yl)oxy)-N-methylacetamide]",++++ (Ymin ≤ 25%)
7,"CNC(=O)COc1cc2cc(Nc3nc(N4CCN(CC5CCN(c6ccc7c(C8CCC(=O)NC8=O)nn(C)c7c6)CC5)[C@H](C)C4)ncc3Cl)ccc2n(C)c1=O (stereo partly drawn) [Compound 309a, 2-((6-((5-chloro-2-((3R)-4-((1-(3-(2,6-dioxopiperidin-3-yl)-1-methyl-1H-indazol-6-yl)piperidin-4-yl)methyl)-3-methylpiperazin-1-yl)pyrimidin-4-yl)amino)-1-methyl-2-oxo-1,2-dihydroquinolin-3-yl)oxy)-N-methylacetamide]",+++ (25% < Ymin ≤ 50%)
8,"CNC(=O)COc1cc2cc(Nc3nc(N4CCN(CC5CCN(c6ccc7c(C8CCC(=O)NC8=O)nn(C)c7c6)CC5)CC4)ncc3Cl)ccc2n(C(C)C)c1=O (stereo not drawn) [Compound 108, 2-((6-((5-chloro-2-(4-((1-(3-(2,6-dioxopiperidin-3-yl)-1-methyl-1H-indazol-6-yl)piperidin-4-yl)methyl)piperazin-1-yl)pyrimidin-4-yl)amino)-1-isopropyl-2-oxo-1,2-dihydroquinolin-3-yl)oxy)-N-methylacetamide]",+++ (25% < Ymin ≤ 50%)
9,"CNC(=O)COc1cc2cc(Nc3nc(N4CCN(CC5CCN(c6cccc7c(C8CCC(=O)NC8=O)nn(C)c67)CC5)CC4)ncc3Cl)ccc2n(C(C)C)c1=O (stereo not drawn) [Compound 107, 2-((6-((5-chloro-2-(4-((1-(3-(2,6-dioxopiperidin-3-yl)-1-methyl-1H-indazol-7-yl)piperidin-4-yl)methyl)piperazin-1-yl)pyrimidin-4-yl)amino)-1-isopropyl-2-oxo-1,2-dihydroquinolin-3-yl)oxy)-N-methylacetamide]",++++ (Ymin ≤ 25%)
10,"CC(=O)COc1cc2cc(Nc3nc(N4CCC5(CCN(CC6CCN(c7ccc8c(C9CCC(=O)NC9=O)nn(C)c8c7)CC6)CC5)CC4)ncc3Cl)ccc2n(C)c1=O (stereo not drawn) [Compound 348, 3-(6-(4-((9-(5-chloro-4-((1-methyl-2-oxo-3-(2-oxopropoxy)-1,2-dihydroquinolin-6-yl)amino)pyrimidin-2-yl)-3,9-diazaspiro[5.5]undecan-3-yl)methyl)piperidin-1-yl)-1-methyl-1H-indazol-3-yl)piperidine-2,6-dione]",++++ (Ymin ≤ 25%)
11,"CNC(=O)COc1cc2cc(Nc3nc(N4CCN(C(C)(C)C5CCN(c6cccc7c(C8CCC(=O)NC8=O)nn(C)c67)CC5)CC4)ncc3Cl)ccc2n(C)c1=O (stereo not drawn) [Compound 337, 2-((6-((5-chloro-2-(4-(2-(1-(3-(2,6-dioxopiperidin-3-yl)-1-methyl-1H-indazol-7-yl)piperidin-4-yl)propan-2-yl)piperazin-1-yl)pyrimidin-4-yl)amino)-1-methyl-2-oxo-1,2-dihydroquinolin-3-yl)oxy)-N-methylacetamide]",++++ (Ymin ≤ 25%)
12,"CNC(=O)COc1cc2cc(Nc3nc(N4CCC[C@H]4CNc4ccc5c(C6CCC(=O)NC6=O)nn(C)c5c4)ncc3Cl)ccc2n(C)c1=O (stereo partly drawn) [Compound 279a, 2-((6-((5-chloro-2-((2S)-2-(((3-(2,6-dioxopiperidin-3-yl)-1-methyl-1H-indazol-6-yl)amino)methyl)pyrrolidin-1-yl)pyrimidin-4-yl)amino)-1-methyl-2-oxo-1,2-dihydroquinolin-3-yl)oxy)-N-methylacetamide]",++ (50% < Ymin ≤ 70%)
13,"CNC(=O)COc1cc2cc(Nc3nc(N4CCN(C5CN(c6ccc7c(C8CCC(=O)NC8=O)nn(C)c7c6)C5)CC4)ncc3Cl)ccc2n(C)c1=O (stereo not drawn) [Compound 282, 2-((6-((5-chloro-2-(4-(1-(3-(2,6-dioxopiperidin-3-yl)-1-methyl-1H-indazol-6-yl)azetidin-3-yl)piperazin-1-yl)pyrimidin-4-yl)amino)-1-methyl-2-oxo-1,2-dihydroquinolin-3-yl)oxy)-N-methylacetamide]",+++ (25% < Ymin ≤ 50%)
14,"CNC(=O)COc1cc2cc(Nc3nc(NC[C@H]4CC[C@H](CNc5cccc6c(C7CCC(=O)NC7=O)nn(C)c56)CC4)ncc3Cl)ccc2n(C)c1=O (stereo partly drawn) [Compound 297b, 2-((6-((5-chloro-2-((((1r,4r)-4-(((3-(2,6-dioxopiperidin-3-yl)-1-methyl-1H-indazol-7-yl)amino)methyl)cyclohexyl)methyl)amino)pyrimidin-4-yl)amino)-1-methyl-2-oxo-1,2-dihydroquinolin-3-yl)oxy)-N-methylacetamide]",++ (50% < Ymin ≤ 70%)
15,"CNC(=O)COc1cc2cc(Nc3nc(N4CCN(C[C@@H]5CCN(c6cccc7c(C8CCC(=O)NC8=O)nn(C)c67)C5)CC4)ncc3Cl)ccc2n(C)c1=O (stereo partly drawn) [Compound 305b, 2-((6-((5-chloro-2-(4-(((3S)-1-(3-(2,6-dioxopiperidin-3-yl)-1-methyl-1H-indazol-7-yl)pyrrolidin-3-yl)methyl)piperazin-1-yl)pyrimidin-4-yl)amino)-1-methyl-2-oxo-1,2-dihydroquinolin-3-yl)oxy)-N-methylacetamide]",+++ (25% < Ymin ≤ 50%)
16,"CNC(=O)COc1cc2cc(Nc3nc(N4CCCC5(CCCN(c6cccc7c(C8CCC(=O)NC8=O)nn(C)c67)C5)C4)ncc3Cl)ccc2n(C)c1=O (stereo not drawn) [Compound 330, 2-((6-((5-chloro-2-(8-(3-(2,6-dioxopiperidin-3-yl)-1-methyl-1H-indazol-7-yl)-2,8-diazaspiro[5.5]undecan-2-yl)pyrimidin-4-yl)amino)-1-methyl-2-oxo-1,2-dihydroquinolin-3-yl)oxy)-N-methylacetamide]",++ (50% < Ymin ≤ 70%)
17,"CNC(=O)COc1cc2cc(Nc3nc(N4CCC[C@H](COc5ccc6c(C7CCC(=O)NC7=O)nn(C)c6c5)C4)ncc3Cl)ccc2n(C)c1=O (stereo partly drawn) [Compound 302a, 2-((6-((5-chloro-2-((3S)-3-(((3-(2,6-dioxopiperidin-3-yl)-1-methyl-1H-indazol-6-yl)oxy)methyl)piperidin-1-yl)pyrimidin-4-yl)amino)-1-methyl-2-oxo-1,2-dihydroquinolin-3-yl)oxy)-N-methylacetamide]",++ (50% < Ymin ≤ 70%)
18,"CNC(=O)COc1cc2cc(Nc3nc(N4CCN(CC5CCC6(CC5)CN(c5cccc7c(C8CCC(=O)NC8=O)nn(C)c57)C6)CC4)ncc3Cl)ccc2n(C(C)C)c1=O (stereo not drawn) [Compound 311, 2-((6-((5-chloro-2-(4-((2-(3-(2,6-dioxopiperidin-3-yl)-1-methyl-1H-indazol-7-yl)-2-azaspiro[3.5]nonan-7-yl)methyl)piperazin-1-yl)pyrimidin-4-yl)amino)-1-isopropyl-2-oxo-1,2-dihydroquinolin-3-yl)oxy)-N-methylacetamide]",++ (50% < Ymin ≤ 70%)
